Test results as given in patent US20060234373A1, “Treatment for diabetes” (priority 2002, published 2006).
Marks after values point to notes of the source that are not given here.

Columns and labels:
isolated human islets = assay: β-cell population of isolated human islets maintained in culture; format: cell-based
Description: The purpose of this experiment was to determine whether treatment with EGF and gastrin can increase the β-cell population of human islets in vitro and by what mechanism. Islet cell preparations were isolated from human donor pancreases (n=5) and prepared according to the approved protocol used for preparation of human islets for islet cell transplantation (Lakey JRT et al (1999) Cell transplant 8:285-292, and Ricordi C. et al. (1988) Diabetes 37:413-420). Islet cells were seeded at a concentration of 1×10^6 cells per dish and cultured for 4 weeks in serum free-MEM medium alone or supplemented with EGF (0.3 μg/ml), gastrin (1.0 μg/ml), or EGF+gastrin in combination for 4 weeks and maintained in culture for an additional 4 weeks.

normal Wistar rats = assay: Pancreatic insulin content in normal rats treated with TGF-α and gastrin; format: in vivo, rat; settings: 0.8 μg/day each i.p. for 10 days, mean±SEM
Description: Normal Wistar and Zucker rats were allowed normal chow ad libidum with free access to water and were acclimatized for one week prior to initiation of each study. Freshly prepared streptozotocin at a dose of 80 mg/kg body weight was administered by I.V. five to seven days after induction of diabetes, the rats were randomly allocated into groups for subsequent treatment. In examples 1-4, TGF-α and rat gastrin were reconstituted in sterile normal saline containing 0.1% BSA. According to the predetermined treatment schedule for different studies, each animal received a single, daily i.p. injection of either TGF-α or gastrin alone (4.0 μg/kg body weight) or as a 1:1 (w/w) combination (total 8.0 μg/kg) or PBS for a period of 10 days. […]
At the end of the study period (10 days), all animals were sacrificed and samples of pancreas taken as follows: five biopsy specimens (1-2 mg) of pancreatic tissue were taken from separate representative sites in each rat pancreas and immediately snap frozen in liquid nitrogen for analysis of insulin content. […] Pancreatic insulin content values were corrected according to protein content and finally expressed as μg insulin/mg pancreatic protein. All values calculated as mean±SEM and statistical significance evaluated using Student's 2-sample t-test.

Q: Which β-cell mass change (isolated human islets; after 4 weeks culture, EGF 0.3 μg/ml, gastrin 1.0 μg/ml, medium alone −60%) does the source give for Gastrin here?
A: The β-cell mass change was −1%.

Q: And the “induction of PDX-1 expression on CK19+ ductal cells” value (isolated human islets; human islets in culture)?
A: Its value is “mainly responsible for induction of PDX-1 expression”.

Q: What about the “Pancreatic Insulin Content” value (normal Wistar rats) of the same substance?
A: Its value is 51.4 +/− 14.0** μg insulin/mg protein.

Q: For “TGF-α: recombinant Human TGF-α, an EGF receptor ligand”, which “Pancreatic Insulin Content” value (normal Wistar rats) is on record?
A: The value was 30.4 +/− 7.4* μg insulin/mg protein.
